Source: paper PMC9964746, “Mechanism of Action and Structure–Activity Relationships of Tetracyclic Small Molecules Acting as Universal Positive Allosteric Modulators of the Cholecystokinin Receptor” (Membranes, 2023)
Values joined by “and” are separate entries in the source; they are usually repeats but may differ in a detail not shown here. Identical values can stand only once.

Tests used:
Assay type in all cases: cell-based
CCK1R [1] = target: T1, CCK1R (Homo sapiens, UniProt P32238); test: IP-One accumulation TR-FRET assay, PAM format, HEK-293 CCK1R cells; design: expressed in transfected cells; host or cells: HEK-293; settings: for Emax: HEK293, relative to CCK control; for Emax / CCK1R PAM (IP-One) Score (activity score = normalized Emax × pEC50) / EC50: HEK-293 CCK1R cells; for Emax / CCK1R PAM (IP-One) Score (activity score = normalized Emax × pEC50): PAM format; for Emax / EC50: average ± SD; for EC50: PAM format with EC20 CCK; for CCK1R IP-One activity (in words): PAM and agonist formats
T1 sequence (P32238 1-428): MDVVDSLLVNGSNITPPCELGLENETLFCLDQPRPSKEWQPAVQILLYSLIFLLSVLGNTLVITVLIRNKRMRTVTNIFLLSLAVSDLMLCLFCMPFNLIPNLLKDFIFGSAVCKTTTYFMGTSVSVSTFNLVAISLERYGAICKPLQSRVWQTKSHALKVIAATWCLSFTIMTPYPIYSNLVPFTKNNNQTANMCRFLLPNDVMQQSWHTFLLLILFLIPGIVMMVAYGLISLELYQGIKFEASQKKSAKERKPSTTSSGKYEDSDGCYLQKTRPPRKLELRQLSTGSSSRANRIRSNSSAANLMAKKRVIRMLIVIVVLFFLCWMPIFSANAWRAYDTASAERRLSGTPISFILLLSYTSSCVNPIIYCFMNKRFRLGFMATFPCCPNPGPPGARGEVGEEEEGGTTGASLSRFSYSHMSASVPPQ
Method: (§1) For structure–activity relationship studies, we performed myo-inositol-1-phosphate (IP-One) accumulation assays with TR-FRET technology applied to the HEK-293 cell line overexpressing CCK1Rs, as we had described in our high throughput screening effort. In brief, thawed cryopreserved cell stocks were re-suspended in IP-One assay media consisting of phenol-red free DMEM (Corning, Corning, NY, USA, #17-205-CV) with 10% FBS, 1% penicillin (10,000 units)/streptomycin (10 mg) (Pen/Strep, Thermo Fisher Scientific, Waltham, MA, USA, Gibco #15140122), and 1% L-glutamine (200 mM) (Gibco #25030081) and diluted to required cell densities. Then, the cell suspension was dispensed into a 1536-well tissue culture microplate (Corning, #3727), and the plate was incubated overnight at 37 °C and 5% CO^2. After 16–20 h, DMSO or compounds were added with an Echo liquid handler (Labcyte, San Jose, CA, USA), resulting in a top final compound concentration of 50 µM diluted 2-fold for 16-point dose–responses. For the positive allosteric modulator (PAM) format, orthosteric stimulator (CCK) dilutions for control wells were prepared in assay media containing 150 mM lithium chloride (LiCl, 50 mM final, Sigma-Aldrich, St Louis, MO, USA, #L7026). After a 30 min incubation of test compounds at 37 °C and 5% CO2, orthosteric stimulator dilutions (for PAM format) or equivalent dilutions of DMSO (for agonist format) were added to designated wells using BioRaptr (Beckman Coulter, Brea, CA, USA). In addition, CCK control ligand dilutions were included on each test plate. After that, the plate was incubated for 1 h at 37 °C and 5% CO^2 and equilibrated to room temperature. Detection reagents from the IP-One Gq detection kit from Cisbio (Cisbio US Inc., Bedford, MA, USA, #62IPAPEJ) were added, and after 1 h at RT, IP-One content was measured with a PHERAstar FSX microplate reader (BMG Labtech, Ortenberg, Germany). Control ligand dose–responses were analyzed using GraphPad Prism 9.3.1 (San Diego, CA, USA) to validate adequate control and test well concentrations for positive allosteric modulation (PAM) and agonist formats. Dose–response curves were performed as 16-point 2-fold dilutions in duplicates in at least three independent experiments. Large data sets were uploaded and analyzed with CBIS (Chemical and Biology Information System software, ChemInnovation Software, Inc., San Diego, CA, USA). Further data analysis for detailed SAR studies was conducted using the D360 software (Certara).
(§2) The potency and efficacy data for these compounds were used to calculate their activity scores using the following formula: Activity Score = normalized Emax × pEC50. Normalized Emax represents the efficacy of the compound as a fractional response relative to that of the CCK control ligand. pEC50 represents the positive logarithmic value of compound EC50 concentrations in (M).

[2] = target: T2, vasopressin-2 receptor (AVP2R) (Homo sapiens, UniProt P30518); test: AVP2R cAMP HTRF accumulation assay; settings: CHO-K1 AVP2R cells; for AVP2R PAM (cAMP) Score (activity score = normalized Emax × pEC50): PAM format; for EC50 / Emax: PAM format with vasopressin, original hits: agonist and PAM data combined, average ± SD
T2 construct: expressed in transfected cells; host or cells: CHO-K1 (PAM format); HEK-293 (agonist format)
Method: Possible off-target biological effects. […] Here, we tested them at the vasopressin-2 receptor (AVP2R), representing a class A GPCR structurally related to CCK1R, which is coupled to Gs. The activity at AVP2R was tested using AVP2R-overexpressing CHO-K1 (PAM format) or HEK-293 (agonist format) cells, stimulating the cells with vasopressin. Original hits were tested in both agonist and PAM formats. Since all recognized compound responses were present in both formats, we continued to screen analogs in only the PAM format (also able to capture agonist effects) in CHO-K1 AVP2R cells for potential enhanced sensitivity. The dose–response data sets for original hits were combined, as the PAM and agonist effects were indistinguishable. In brief, arginine vasopressin (AVP) orthosteric stimulator dilutions and ligand and compound dose–response titrations in DMSO were transferred onto a 1536-well plate (Corning #3725) using an Echo liquid handler (Labcyte). Thawed cryopreserved cell stocks were diluted in stimulation buffer consisting of HBSS (Hank’s Balanced Salt Solution with Ca^2+ and Mg^2+, Gibco #24020117), 5 mM HEPES (hydroxyethyl piperazineethanesulfonic acid), 0.5 mM IBMX (3-isobutyl-1-methylxanthine, Sigma-Aldrich), and 0.075% BSA (7.5% DTPA-purified bovine serum albumin, PerkinElmer). The resulting cell suspension was added to the microplate and incubated with test compounds at room temperature for 30 min. Then, the detection reagents from the Cisbio cAMP Gs Dynamic HTRF detection kit were added. The plate was kept at room temperature for 30 min and read on a PHERAstar FSX microplate reader. Dose–response curves were performed as 16-point 2-fold dilutions in duplicate in at least two independent experiments.

CCK1R [3] = target: T1, CCK1R; test: IP-One accumulation TR-FRET assay, agonist format, HEK-293 CCK1R cells; design: expressed in transfected cells; host or cells: HEK-293; settings: for Emax: HEK293, relative to CCK control, average ± SD, read-out: CCK1R Ago (IP-One) Emax
Method: as §1, §2

T2 sequence (P30518 whole entry): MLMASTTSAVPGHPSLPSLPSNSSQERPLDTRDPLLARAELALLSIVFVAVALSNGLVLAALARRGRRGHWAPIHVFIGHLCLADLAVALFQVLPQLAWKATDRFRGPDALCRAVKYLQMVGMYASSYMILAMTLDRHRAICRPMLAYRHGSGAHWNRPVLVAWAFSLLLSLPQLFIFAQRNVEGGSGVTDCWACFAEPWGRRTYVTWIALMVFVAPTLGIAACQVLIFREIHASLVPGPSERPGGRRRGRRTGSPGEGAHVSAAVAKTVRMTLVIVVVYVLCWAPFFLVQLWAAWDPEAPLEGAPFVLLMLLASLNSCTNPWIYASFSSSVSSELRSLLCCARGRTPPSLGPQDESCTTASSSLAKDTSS

Emax (CCK1R [1]) [%]	CCK1R PAM (IP-One) Score (activity score = normalized Emax × pEC50) (CCK1R [1])	EC50 (CCK1R [1]) [µM]	AVP2R PAM (cAMP) Score (activity score = normalized Emax × pEC50) [2]	EC50 [2] [µM]	Emax [2] [%]	CCK1R Ago (IP-One) Score (activity score = normalized Emax × pEC50) (CCK1R [3])	Emax (CCK1R [3]) [%]	CCK1R IP-One activity (in words) (CCK1R [1])	SMILES
41 ± 15	1.8 and 1.76	30.2 ± 11.2	0.9 and 0.87	3.7 ± 0.5	16 ± 4	–	–	–	c1ccc(-c2nc3sc4c(NCCN5CCOCC5)ncnc4c3c3c2CCCC3)cc1 [CMP-26]
36 ± 20	1.5 and 1.49	31.3 ± 14.9	1.6 and 1.59	7.9 ± 2.5	31	0	0	–	CN(C)CCNc1ncnc2c1sc1nc(N3CCCCC3)c3c(c12)CCCC3 [CMP-35]
–	–	–	0.93	22.3 ± 7.2	20	0	0	displayed no effects	CC(Sc1ncnc2c1sc1nc(N3CCOCC3)c3c(c12)CCCC3)C(=O)O (stereo not drawn) [CMP-59]
–	–	–	–	–	–	0	0	showed no agonist or PAM activity	CN(C)CCCNc1ncnc2c1sc1nc(N3CCOCC3)c3c(c12)CCC3 [CMP-43]
–	–	–	0	–	0	0	0	–	CCCc1nc2oc3c(NCCCO)ncnc3c2c2c1CCCC2 [CMP-58]
46 ± 7	2.2 and 2.23	14.1 ± 4.3	3.3 and 3.28	11.4 ± 3.6	66 ± 3	–	–	–	CCCc1nc2oc3c(N4CCNCC4)ncnc3c2c2c1CCCC2 [CMP-12]
51 ± 16	2.3 and 2.28	22.5 ± 9	2.2 and 2.15	21.7 ± 11.3	46 ± 9	–	–	–	CCN(CC)CCCNc1ncnc2c1oc1nc(CC(C)C)c3c(c12)CCC3 [CMP-10]
–	–	–	0	–	0	0	0	–	CCCc1nc2oc3c(N(C)CCO)ncnc3c2c2c1CCCC2 [CMP-39]
0	0	–	–	–	–	0	0	displayed no effects	Sc1nnnc2c1sc1nc(N3CCOCC3)c3c(c12)CCCC3 [CMP-52]
38 ± 11	1.79	14.5 ± 5.3	–	8.6 ± 5.4	74 ± 12	–	–	–	CC(C)Cc1nc2oc3c(NCCN(C)C)ncnc3c2c2c1CCCC2 [CMP-25]
50 ± 32	2.0 and 1.99	23 ± 17.9	1.2	22.4 ± 9.2	26 ± 1	–	–	–	CN(C)CCCNc1nnnc2c1sc1nc(N3CCOCC3)c3c(c12)CCCC3 [CMP-17]
–	–	–	0	–	0	0	0	–	COc1ccc(CCNc2ncnc3c2oc2nc(C(C)C)c4c(c23)CCC4)cc1OC [CMP-62]
–	–	–	2.0 and 1.96	26.2 ± 2.4	43 ± 7	0	–	–	CC(C)c1nc2sc3c(NCCN4CCOCC4)ncnc3c2c2c1CCCC2 [CMP-54]
51 ± 43	1.9 and 1.94	18.2 ± 8.6	–	–	–	0	0	–	CN1CCN(c2ncnc3c2sc2nc(N4CCOCC4)c4c(c23)CCCC4)CC1 [CMP-19]
60 ± 23	2.8 and 2.77	16.6 ± 15.9	1.6 and 1.64	14.8 ± 10.3	34 ± 5.3	–	–	–	c1nc(N2CCNCC2)c2sc3nc(N4CCOCC4)c4c(c3c2n1)CCCC4 [CMP-3]
53 ± 6	2.7 and 2.66	7.5 ± 2.9	1.6 and 1.61	8.1 ± 8.5	32 ± 11	–	–	–	CCCCc1nc2sc3c(NCCCO)ncnc3c2c2c1CCC2 [CMP-5]
–	–	–	0	–	0	0	0	–	CC(C)c1nc2oc3c(N4CCC(Cc5ccccc5)CC4)ncnc3c2c2c1CCC2 [CMP-63]
–	–	–	0	–	–	0	–	–	Cc1nc2sc3c(NCCN4CCOCC4)ncnc3c2c2c1CCCC2 [CMP-61]
–	–	–	0	–	0	0	0	–	CCCc1nc2oc3c(NCc4ccncc4)ncnc3c2c2c1CCCC2 [CMP-60]
–	–	–	0	–	0	0	0	–	CCCCNc1ncnc2c1sc1nc(CCC)c3c(c12)CCCC3 [CMP-57]
–	–	–	0	–	0	0	0	–	CCCc1nc2sc3c(NCCCO)ncnc3c2c2c1CCC2 [CMP-56]
